# In article PMC10050881:
# What was measured:
# [1] = target: T1, PEDV Mpro (main protease, 3CL protease) (Porcine epidemic diarrhea virus CV777, UniProt P0C6Y4); experiment: surface plasmon resonance (OpenSPR), Mpro immobilised; assay type: binding; details: read-out: KD (affinity constant)
# T1 construct: gene rep; mature nsp5 main protease cut from replicase polyprotein 1a/1ab; recombinant N-terminal GST fusion, GST tag removed with PreScission protease; expression as in Li et al., 2020; PDB 4XFQ only for docking
# T1 sequence (P0C6Y4 2998-3299 limits assumed): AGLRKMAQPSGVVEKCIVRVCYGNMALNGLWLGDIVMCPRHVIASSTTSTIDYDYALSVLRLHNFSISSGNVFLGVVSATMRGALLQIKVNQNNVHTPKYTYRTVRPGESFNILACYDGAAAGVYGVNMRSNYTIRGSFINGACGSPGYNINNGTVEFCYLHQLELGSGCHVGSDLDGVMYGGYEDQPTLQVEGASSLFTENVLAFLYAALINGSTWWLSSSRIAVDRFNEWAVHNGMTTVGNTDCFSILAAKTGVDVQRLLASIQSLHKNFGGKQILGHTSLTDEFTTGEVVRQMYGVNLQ
# [2] = target: T1, PEDV Mpro (main protease, 3CL protease); experiment: FRET inhibition assay; assay type: biochemical
smiles,measurement,setting,value
COc1c(O)cc(O)c2c(=O)cc(-c3ccccc3)oc12 [wogonin],Kd,[1],16 µM
same,IC50,[2],19.4 µM
